One assay relates to HT-29 cells. As to the kind of experiment: Spontaneous IL-8 secretion from intestinal epithelial cells (ELISA). The assay is classed as cell-based, human. Set-up: IL-8 secretion Average O.D.: scale not given here. The following applies: peptide 1 nM, 24 h at 37° C.; for IL-8 secretion Average O.D.: ELISA O.D. at 405 nm, medium alone 488 ± 8.5, background 71 ± 1.4; for IL-8 secretion % inhibition: spontaneous secretion. Here is the method: Human colonic epithelial cell lines HT-29 (ATCC HTB38) and Caco-2 (ATCC […]) were obtained from the American Type Culture Collection (ATTC, Rockville, Md.). Cells were maintained in culture medium (DMEM supplemented with 10% cosmic calf serum (CSS), 2 mM glutamine, 100 U/ml penicillin, and 0.1 mg/ml streptomycin), at 37° C. and atmosphere of 5%, CO2. Cell viability was assessed using the standard MTT method.
Spontaneous or cytokine-induced secretion of IL-8 or IL-1β from intestinal epithelial cell. Test cells (HT-29 or Caco-2) were grown as confluent monolayers in 24-well tissue culture plates. […] When TNF-α was used, the peptides were added to the cells 1 hour prior to the addition of TNF-α. Following culture, the supernatants were harvested and analyzed for IL-8 or IL-1β secretion by ELISA using commercially available kits for IL-8 (Pharmingen) and IL-1β (Genzyme), according to the manufacturers' protocols.
The results in Table 1 show the O.D. readings of the ELISA assay (at 405 nm) as well as the percentage of inhibition of IL-8 secretion.
For orientation: An ELISA detects its analyte on a solid surface through an enzyme-linked reagent.

In another assay the test system is human T cells. As to the kind of experiment: IL-2-induced T cell adhesion to fibronectin (FN). The assay is classed as cell-based. The following applies: IL-2 10 U/ml, 30 min at 37° C., dose range. Here is the method: T cell adhesion assays. Human T cells were purified from the peripheral blood of healthy donors, and T cell adhesion to immobilized protein substrates was examined as follows: Human leukocytes were isolated on a Ficoll gradient, washed, and incubated (2 h, 37° C., 7.5% CO2, humidified atmosphere) on petri dishes. The non-adherent cells were then collected and incubated (1 h, 37° C., 7.5% CO2, humidified atmosphere) on nylon wool columns (Novamed Ltd., Jerusalem, Israel). Unbound cells were eluted from the columns by extensive washings. The resulting cell population was always >92% T cells. […] After 4-6 h at 37° C., the wells were washed and ^51[Cr]-labeled T cells were added to the wells, 10^5 cells/100 μl of adhesion medium (RPMI-1640 supplemented with 0.1% BSA, 1% sodium pyruvate, 1% HEPES buffer). The microtiter plates containing the cells were incubated (30 min, 37° C.) in a humidified, 7.5% CO2 atmosphere, and then washed. The adherent cells were lysed, and the resulting supernatants were removed and analyzed in a γ-counter. For each experimental group, the results were expressed as the mean percentage ±SD of bound T cells from quadruplicate wells.
The effect of synthetic peptides, with putative amino acid compositions corresponding to fractions 2 and 8, on IL-2-induced T cell adhesion to FN. […] These three peptides were synthesized, and their effects on IL-2-induced T cell adhesion to FN were studied. […] The inhibitory dose-response curves of Ile-Val-Leu and […](SEQ ID NO:1) are similar to those of the HPLC fractions 2 and 8, respectively, from which they were derived. […]

No end group written: not given here.

For AFLNRWIT [pep22], in the assay with HT-29 cells, the “IL-8 secretion Average O.D.” value is reported as 158 ± 4.2 and the “IL-8 secretion % inhibition” value is listed as 79%. The like results for ATIVEFLNRWIT [pep17] were, in that order, 150 ± 6.4 and 81%. For Ala-Met-Leu-Thr (AMLT) [pep36], in that order: 201 ± 17.7 and 69%. For Ala-Val-Leu [pep7], in that order: 170 ± 8.5 and 76%.

In the case of Arg-Ala-Leu-Thr (RALT) [pep37], in the assay on HT-29 cells, the “IL-8 secretion Average O.D.” value stood at 222 ± 24.0 and the “IL-8 secretion % inhibition” value was found to be 64%. For Arg-Met-Ala-Thr (RMAT) [pep38], in that order: 157 ± 1.4 and 79%.

On to Arg-Met-Leu-Ala (RMLA) [pep39], for which, in the assay on HT-29 cells, the “IL-8 secretion Average O.D.” value is 160 ± 21.9 and the “IL-8 secretion % inhibition” value turned out to be 79%. For Arg-Met-Leu-Thr-NH2 (RMLT-NH2) [pep42], in that order: 226 ± 28.3 and 63%. Turning to Arg-Trp-Ile-Thr [pep20], in the assay on HT-29 cells, the “IL-8 secretion Average O.D.” value stood at 191 ± 4.9 and the “IL-8 secretion % inhibition” value was found to be 71%.

Consider Arg-Val-Leu-Thr (RVLT) [pep41], for which, in the assay on HT-29 cells, the “IL-8 secretion Average O.D.” value was found to be 132 ± 17.0 and the “IL-8 secretion % inhibition” value is 85%. The like results for Asn-Val-Ile-Val-Leu (NVIVL) [pep6] were, in that order, 100 ± 14.8 and 93%. For the substance EALNRWIT [pep24], in the assay with HT-29 cells, the “IL-8 secretion Average O.D.” value amounted to 187 ± 16.3 and the “IL-8 secretion % inhibition” value came out at 72%. For EFANRWIT [pep26], in that order: 156 ± 27.6 and 80%. As for EFLARWIT [pep27], in the assay with HT-29 cells, the “IL-8 secretion Average O.D.” value came to 309 ± 18.4 and the “IL-8 secretion % inhibition” value is given as 43%.

Take EFLNAWIT [pep28]: in the assay with HT-29 cells, the “IL-8 secretion Average O.D.” value was found to be 120 ± 8.5 and the “IL-8 secretion % inhibition” value amounted to 88%. The like results for EFLNEWIT [pep29] were, in that order, 139 ± 19.8 and 84%. For EFLNRAIT [pep30], in that order: 123 ± 9.2 and 88%. The like results for EFLNRWAT [pep31] were, in that order, 112 ± 18.4 and 90%.

For EFLNRWIA [pep32], in the assay on HT-29 cells, the “IL-8 secretion Average O.D.” value was 80 ± 24.0 and the “IL-8 secretion % inhibition” value was 98%. For EFLNRWITFC [pep16], in that order: 126 ± 7.1 and 87%. For EFLNRWITFCQS [pep18], in that order: 162 ± 12.0 and 78%. For EVLNRWIT [pep25], in that order: 172 ± 2.8 and 76%. In the case of Glu-Phe-Leu-Asn [pep21], in the assay on HT-29 cells, the “IL-8 secretion Average O.D.” value was 195 ± 14.1 and the “IL-8 secretion % inhibition” value stood at 70%. For “Glu-Phe-Leu-Asn-Arg-Trp-Ile-Thr-NH2 (EFLNRWIT-NH2) [pep33]”, in that order: 73 ± 5.7 and 100%. For Glu-Val-Leu [pep10], in that order: 125 ± 19.1 and 87%.

In the case of IVEFLNRWIT [pep15], in the assay with HT-29 cells, the “IL-8 secretion Average O.D.” value is reported as 33 ± 0.7 and the “IL-8 secretion % inhibition” value is given as 109%.

Take IVLELKG [pep5]: in the assay with HT-29 cells, the “IL-8 secretion Average O.D.” value is on record as 35 ± 0.7 and the “IL-8 secretion % inhibition” value is recorded as 109%.

On to Ile-Ala-Leu [pep8], for which, in the assay on HT-29 cells, the “IL-8 secretion Average O.D.” value came out at 35 ± 4.9 and the “IL-8 secretion % inhibition” value stood at 109%. The like results for Ile-Val-Ala [pep9] were, in that order, 100 ± 9.9 and 93%.

As to KFLNRWIT [pep23], in the assay on HT-29 cells, the “IL-8 secretion Average O.D.” value came to 36 ± 14.1 and the “IL-8 secretion % inhibition” value came out at 108%.

For LNRWIT [pep19], in the assay on HT-29 cells, the “IL-8 secretion Average O.D.” value is 152 ± 30.4 and the “IL-8 secretion % inhibition” value is given as 81%.

As for Leu-Val-Ile [reference compound], in the assay on human T cells, the “inhibition of adhesion of IL-2-activated T cells to FN” value is “none of these peptides, tested in a broad range of dosages, interfere with T cell adhesion”. As to Lys-Met-Leu-Thr (KMLT) [pep40], in the assay on HT-29 cells, the “IL-8 secretion Average O.D.” value was found to be 179 ± 17.7 and the “IL-8 secretion % inhibition” value is 74%. For NINVIVL [pep4], in that order: 34 ± 3.5 and 109%. The like results for PKLTRMLT [pep43] were, in that order, 57 ± 12.7 and 103%. For RMLTFKFY [pep44], in that order: 307 ± 29.7 and 43%.

On to TIWRNLFE [reference compound], for which, in the assay with human T cells, the “inhibition of adhesion of IL-2-activated T cells to FN” value is recorded as “none of these peptides, tested in a broad range of dosages, interfere with T cell adhesion”. The same measure, in the same setting: the result for “Thr-Leu-Met-Arg (TLMR) [reference compound]” reads “none of these peptides, tested in a broad range of dosages, interfere with T cell adhesion”.

The values above are taken from patent publication US6906170B1 (Yeda Research and Development Co. Ltd., priority 1998, dated 2005).
